Patent EP4806898A1, “HETEROARYL DERIVATIVE COMPOUND AND USE THEREOF” (Voronoi Inc., priority 2023, dated 2025)

Experiments:
recombinant USP1 protein = target: T1, recombinant USP1 protein (Homo sapiens, UniProt O94782, DEL125-138/DEL229-408/DEL608-737); assay: Binding affinity to recombinant USP1 protein by differential scanning fluorimetry; conditions: compound 100 µM; 0.03 mg/mL USP1 (Δ1-66, Δ125-138, Δ229-408, Δ608-737); Tm with compound minus Tm with DMSO; read-out: ΔTm (°C)
T1 sequence (O94782 with tags, fused parts or gaps DEL125-138/DEL229-408/DEL608-737): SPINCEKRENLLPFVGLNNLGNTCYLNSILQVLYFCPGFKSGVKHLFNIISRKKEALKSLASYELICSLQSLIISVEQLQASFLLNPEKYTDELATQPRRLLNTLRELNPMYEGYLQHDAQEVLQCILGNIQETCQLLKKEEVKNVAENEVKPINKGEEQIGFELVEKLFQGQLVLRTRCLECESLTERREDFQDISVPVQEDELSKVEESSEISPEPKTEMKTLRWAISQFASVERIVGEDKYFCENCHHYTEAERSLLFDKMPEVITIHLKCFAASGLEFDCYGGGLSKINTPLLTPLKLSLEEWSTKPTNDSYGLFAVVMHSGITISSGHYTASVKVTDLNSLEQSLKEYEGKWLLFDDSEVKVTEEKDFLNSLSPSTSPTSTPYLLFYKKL
How it was run: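 USP1 (Δ1-66, Δ125-138, Δ229-408, Δ608-737) at 0.03 mg/mL with dye in 50 mM Tris-HCl pH 8.0, 150 mM NaCl, 2% glycerol, 1 mM DTT; compounds at 100 µM final. Tm read on real-time PCR instrument; ΔTm = Tm with compound minus Tm with DMSO.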

UWB1.289 cells = assay: Cell proliferation inhibitory activity in BRCA1/2-mutant or HRD-positive cells (Cell Titer-Glo); format: cell-based; conditions: UWB1289; UWB1.289 cells, 144 hours after compound treatment, Cell Titer-Glo, 1.5 nM to 10 µM; read-out: GI50 UWB1.289 BRCA1 mut
How it was run: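 UWB1.289 cells (1,000/well) in 50% MEBM/50% RPMI1640 exposed to […], final 1.5 nM to 10 µM, for 144 h at 37 °C. Viable cells measured by CellTiter-Glo luminescence; GI50 calculated.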

SMILES | ΔTm at 100 µM (recombinant USP1 protein) [°C] | GI50 (UWB1.289 cells) [nM]
COc1ncnc(C2CC2)c1-c1ncc2cc(C(=O)N[C@@H]3CCN(C)C[C@H]3F)n(Cc3ccc(-c4nc(C(F)(F)F)cn4C)cc3)c2n1 [Example 165, 2-(4-cyclopropyl-6-methoxypyrimidin-5-yl)-N-((3R,4R)-3-fluoro-1-methylpiperidin-4-yl)-7-(4-(1-methyl-4-(trifluoromethyl)-1H-imidazol-2-yl)benzyl)-7H-pyrrolo[2,3-d]pyrimidine-6-carboxamide] | > 5 | < 100
COc1ncnc(C2CC2)c1-c1ncc2cc(C(=O)N[C@@H](C)CO)n(Cc3ccc(-c4nc(C(F)(F)F)cn4C)cc3)c2n1 [Example 166, (S)-2-(4-cyclopropyl-6-methoxypyrimidin-5-yl)-N-(1-hydroxypropan-2-yl)-7-(4-(1-methyl-4-(trifluoromethyl)-1H-imidazol-2-yl)benzyl)-7H-pyrrolo[2,3-d]pyrimidine-6-carboxamide] | > 5 | < 100
COc1ncnc(C2CC2)c1-c1ncc2cc(C(=O)N[C@H]3CCN(C)C[C@@H]3F)n(Cc3ccc(-c4nc(C(F)(F)F)cn4C)cc3)c2n1 [Example 167, 2-(4-cyclopropyl-6-methoxypyrimidin-5-yl)-N-((3S,4S)-3-fluoro-1-methylpiperidin-4-yl)-7-(4-(1-methyl-4-(trifluoromethyl)-1H-imidazol-2-yl)benzyl)-7H-pyrrolo[2,3-d]pyrimidine-6-carboxamide] | > 5 | < 100
COc1ncnc(C2CC2)c1-c1ncc2cc(C(=O)N[C@@H]3CCC[C@H]3N(C)C)n(Cc3ccc(-c4nc(C(F)(F)F)cn4C)cc3)c2n1 [Example 168, 2-(4-cyclopropyl-6-methoxypyrimidin-5-yl)-N-((1R,2R)-2-(dimethylamino)cyclopentyl)-7-(4-(1-methyl-4-(trifluoromethyl)-1H-imidazol-2-yl)benzyl)-7H-pyrrolo[2,3-d]pyrimidine-6-carboxamide] | > 5 | < 100
COc1ncnc(C2CC2)c1-c1ncc2cc(C(=O)N[C@@H]3CCN(C)C3)n(Cc3ccc(-c4nc(C(F)(F)F)cn4C)cc3)c2n1 [Example 169, (R) -2-(4-cyclopropyl-6-methoxypyrimidin-5-yl)-7-(4-(1-methyl-4-(trifluoromethyl)-1H-imidazol-2-yl)benzyl)-N-(1-methylpyrrolidin-3-yl)-7H-pyrrolo[2,3-d]pyrimidine-6-carboxamide] | > 5 | < 100
COc1ncnc(C2CC2)c1-c1ncc2cc(C(=O)N3CCN(C)CC3)n(Cc3ccc(-c4nc(C(F)(F)F)cn4C)cc3)c2n1 [Example 170, (2-(4-cyclopropyl-6-methoxypyrimid in-5-yl)-7-(4-(1-methyl-4-(trifluoromethyl)-1H-imidazol-2-yl)benzyl) -7H-pyrrolo[2,3-d]pyrimidin-6-yl) (4-methylpiperazi n-1-yl)methanone] | > 5 | 100 to 500
COc1ncnc(C2CC2)c1-c1ncc2cc(C(=O)NC3CN(C)C3)n(Cc3ccc(-c4nc(C(F)(F)F)cn4C)cc3)c2n1 [Example 171, 2-(4-cyclopropyl-6-methoxypyrimidin-5-yl)-7-(4-(1-methyl-4-(trifluoromethyl)-1H-imidazol-2-yl)benzyl)-N-(1-methylazetidin-3-yl)-7H-pyrrolo[2,3-d]pyrimidine-6-carboxamide] | > 5 | < 100
COc1ncnc(C2CC2)c1-c1ncc2cc(C(=O)NC3CCC(N(C)C)CC3)n(Cc3ccc(-c4nc(C(F)(F)F)cn4C)cc3)c2n1 (centres unmarked) [Example 172] | > 5 | < 100
COc1ncnc(C2CC2)c1-c1ncc2cc(C(=O)N[C@H]3CCN(C)C3)n(Cc3ccc(-c4nc(C(F)(F)F)cn4C)cc3)c2n1 [Example 173, (S)-2-(4-cyclopropyl-6-methoxypyrimidin-5-yl)-7-(4-(1-methyl-4-(trifluoromethyl)-1H-imidazol-2-yl)benzyl)-N-(1-methylpyrrolidin-3-yl)-7H-pyrrolo[2,3-d]pyrimidine-6-carboxamide] | > 5 | < 100
COc1ncnc(C2CC2)c1-c1ncc2cc(C(=O)N[C@H]3CCN(C)C3)n(Cc3ccc(-c4nc(C(F)(F)F)cn4C(C)C)cc3)c2n1 [Example 174, (S)-2-(4-cyclopropyl-6-methoxypyrimidin-5-yl)-7-(4-(1-isopropyl-4-(trifluoromethyl)-1H-imidazol-2-yl)benzyl)-N-(1-methylpyrrolidin-3-yl)-7H-pyrrolo[2,3-d]pyrimidine-6-carboxamide] | > 5 | < 100
COc1ncnc(C2CC2)c1-c1ncc2cc(C(=O)N[C@@H]3CCN(C)C3)n(Cc3ccc(-c4nc(C(F)(F)F)cn4C(C)C)cc3)c2n1 [Example 175, (R)-2-(4-cyclopropyl-6-methoxypyrimidin-5-yl)-7-(4-(1-isopropyl-4-(trifluoromethyl)-1H-imidazol-2-yl)benzyl)-N-(1-methylpyrrolidin-3-yl)-7H-pyrrolo[2,3-d]pyrimidine-6-carboxamide] | > 5 | < 100
COc1ncnc(C2CC2)c1-c1ncc2cc(C(=O)NC[C@@H](O)CO)n(Cc3ccc(-c4nc(C(F)(F)F)cn4C)cc3)c2n1 [Example 176, (R) -2-(4-cyclopropyl-6-methoxypyrimidin-5-yl)-N-(2,3-dihydroxypropy 1)-7-(4-(1-methyl-4-(trifluoromethyl)-1H-imidazol-2-yl)benzyl)-7H-pyrrolo[2,3-d]pyrimidine-6-carboxamide] | > 5 | 100 to 500
COc1ncnc(C2CC2)c1-c1ncc2cc(C(N)=O)n(Cc3ccc(-n4nc(C(F)(F)F)cc4C)cc3)c2n1 [Example 177, 2-(4-cyclopropyl-6-methoxypyrimidin-5-yl)-7-(4-(5-methyl-3-(trifluoromethyl)-1H-pyrazol-1-yl)benzyl)-7H-pyrrolo[2,3-d]pyrimidine-6-carboxamide] | > 5 | < 100
CNC(=O)c1cc2cnc(-c3cccnc3OC(F)F)nc2n1Cc1ccc(-c2nc(C(F)(F)F)cn2C(C)C)cc1 [Example 178, 2-(2-(difluoromethoxy)pyridin-3-yl)-7-(4-(1-isopropyl-4-(trifluoromethyl)-1H-imidazol-2-yl)benzyl)-N-methyl-7H-pyrrolo[2,3-d]pyrimidine-6-carboxamide] | > 5 | < 100
COc1ncnc(C2CC2)c1-c1ncc2cc(C(=O)N3CC(N(C)C)C3)n(Cc3ccc(-c4nc(C(F)(F)F)cn4C)cc3)c2n1 [Example 179, (2-(4-cyclopropyl-6-methoxypyrimid in-5-yl)-7-(4-(1-methyl-4-(trifluoromethyl)-1H-imidazol-2-yl)benzyl)-7H-pyrrolo[2,3-d]pyrimidin-6-yl) (3-(dimethylamino)azetidin-1-yl)methanone] | > 5 | < 100
CNC(=O)c1cc2cnc(-c3ccccc3C(C)C)nc2n1Cc1ccc(-c2nc(C(F)(F)F)cn2C)cc1 [Example 180, 2-(2-isopropylphenyl)-N-methyl-7-(4-(1-methyl-4-(trifluoromethyl)-1H-imidazol-2-yl)benzyl)-7H-pyrrolo[2,3-d]pyrimidine-6-carboxamide] | > 5 | < 100
